{"source": "the Kinase Knowledgebase extract (Sharma et al. 2016)", "data": [{"system": "MAPK14 (Balb/c mice)", "assay": "Inhibition of TNF-alpha Release in Balb/c Mice", "settings": "dose or concentration not given here", "units": {"inhibition": "%"}, "values": [{"compound": "C[C@H](Nc1nccc(-c2c(-c3ccccc3)nc3nc(N)ccn23)n1)c1ccccc1", "inhibition": 100}, {"compound": "Nc1ccn2c(-c3ccnc(NCc4ccccc4)c3)c(-c3ccc(F)cc3)nc2n1", "inhibition": 42}, {"compound": "CS(=O)(=O)c1nccc(-c2c(-c3cccc(C(F)(F)F)c3)nc3nc(N)ccn23)n1", "inhibition": 10}, {"compound": "Nc1ccn2c(-c3ccncn3)c(-c3cccc(C(F)(F)F)c3)nc2n1", "inhibition": 85}, {"compound": "Nc1ccn2c(-c3ccnc(NCc4ccccc4)c3)c(-c3cccc(C(F)(F)F)c3)nc2n1", "inhibition": 19}, {"compound": "CSc1nccc(-c2c(-c3cccc(C(F)(F)F)c3)nc3nc(N)ccn23)n1", "inhibition": 38}, {"compound": "CSc1nccc(-c2c(-c3ccc(F)cc3)nc3nc(N)ccn23)n1", "inhibition": 68}, {"compound": "Nc1ccn2c(-c3ccncn3)c(-c3ccc(F)cc3)nc2n1", "inhibition": 91}, {"compound": "CSc1nccc(-c2c(-c3ccccc3)nc3nc(N)ccn23)n1", "inhibition": 23}, {"compound": "Nc1ccn2c(-c3ccncc3)c(-c3ccccc3)nc2n1", "inhibition": 100}, {"compound": "Nc1ccn2c(-c3ccnc(N4CCCCC4)n3)c(-c3ccccc3)nc2n1", "inhibition": 63}, {"compound": "C[C@H](Nc1nccc(-c2c(-c3cccc(C(F)(F)F)c3)nc3nc(N)ccn23)n1)c1ccccc1", "inhibition": 97}, {"compound": "Nc1ccn2c(-c3ccncc3)c(-c3cccc(F)c3)nc2n1", "inhibition": 100}, {"compound": "Nc1ccn2c(-c3ccncc3)c(-c3ccc(F)cc3)nc2n1", "inhibition": 100}, {"compound": "Nc1ccn2c(-c3ccnc4ccccc34)c(-c3ccc(F)cc3)nc2n1", "inhibition": 26}, {"compound": "Nc1ccn2c(-c3ccncn3)c(-c3ccccc3)nc2n1", "inhibition": 73}, {"compound": "C[C@H](Nc1cc(-c2c(-c3ccc(F)cc3)nc3nc(N)ccn23)ccn1)c1ccccc1", "inhibition": 97}, {"compound": "CSc1nccc(-c2c(-c3cccc(F)c3)nc3nc(N)ccn23)n1", "inhibition": 51}, {"compound": "Nc1ccn2c(-c3ccncc3)c(-c3ccc(F)c(Cl)c3)nc2n1", "inhibition": 100}, {"compound": "C[C@H](Nc1nccc(-c2c(-c3ccc(F)cc3)nc3nc(N)ccn23)n1)C1CCCCC1", "inhibition": 74}, {"compound": "COc1nccc(-c2c(-c3ccccc3)nc3nc(N)ccn23)n1", "inhibition": 87}, {"compound": "Nc1ccn2c(-c3ccncc3)c(-c3cccc(Cl)c3)nc2n1", "inhibition": 47}, {"compound": "Nc1ccn2c(-c3ccncc3)c(-c3cccc(C(F)(F)F)c3)nc2n1", "inhibition": 99}]}, {"biological_target": "MAPK14 (human) (UniProt Q16539)", "sequence (Q16539 whole entry, looked up)": "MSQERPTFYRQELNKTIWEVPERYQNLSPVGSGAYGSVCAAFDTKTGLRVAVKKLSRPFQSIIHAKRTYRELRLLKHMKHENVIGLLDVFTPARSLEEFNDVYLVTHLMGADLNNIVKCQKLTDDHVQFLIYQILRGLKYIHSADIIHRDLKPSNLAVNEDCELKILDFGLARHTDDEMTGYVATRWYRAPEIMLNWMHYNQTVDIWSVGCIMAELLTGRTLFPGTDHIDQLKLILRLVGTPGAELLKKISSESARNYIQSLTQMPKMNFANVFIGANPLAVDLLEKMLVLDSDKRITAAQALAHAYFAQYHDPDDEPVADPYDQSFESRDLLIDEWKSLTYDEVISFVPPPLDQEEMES", "assay": "Inhibition of TNF-alpha Release from PBMC", "settings": "not given", "units": {"IC50": "nM"}, "values": [{"compound": "C[C@H](Nc1nccc(-c2c(-c3ccccc3)nc3nc(N)ccn23)n1)c1ccccc1", "IC50": 0.4}, {"compound": "CS(=O)(=O)c1nccc(-c2c(-c3cccc(C(F)(F)F)c3)nc3nc(N)ccn23)n1", "IC50": 520}, {"compound": "Nc1ccn2c(-c3ccncn3)c(-c3cccc(C(F)(F)F)c3)nc2n1", "IC50": 278}, {"compound": "Nc1ccn2c(-c3ccnc(NCc4ccccc4)c3)c(-c3cccc(C(F)(F)F)c3)nc2n1", "IC50": 4}, {"compound": "CSc1nccc(-c2c(-c3cccc(C(F)(F)F)c3)nc3nc(N)ccn23)n1", "IC50": 27}, {"compound": "CSc1nccc(-c2c(-c3ccc(F)cc3)nc3nc(N)ccn23)n1", "IC50": 37}, {"compound": "Nc1ccn2c(-c3ccncn3)c(-c3ccc(F)cc3)nc2n1", "IC50": 199}, {"compound": "Nc1ccn2c(-c3ccncc3)c(-c3ccccc3)nc2n1", "IC50": 55}, {"compound": "COc1ccc(CNc2nccc(-c3c(-c4ccccc4)nc4nc(N)ccn34)n2)cc1", "IC50": 14}, {"compound": "Nc1ccn2c(-c3ccnc(N4CCCCC4)n3)c(-c3ccccc3)nc2n1", "IC50": 8}, {"compound": "C[C@H](Nc1nccc(-c2c(-c3cccc(C(F)(F)F)c3)nc3nc(N)ccn23)n1)c1ccccc1", "IC50": 0.5}, {"compound": "Nc1ccn2c(-c3ccncc3)c(-c3cccc(F)c3)nc2n1", "IC50": 55}, {"compound": "Nc1ccn2c(-c3ccncc3)c(-c3ccc(F)cc3)nc2n1", "IC50": 49}, {"compound": "Nc1ccn2c(-c3ccnc4ccccc34)c(-c3ccc(F)cc3)nc2n1", "IC50": 333}, {"compound": "CSc1nccc(-c2c(-c3cccc(F)c3)nc3nc(N)ccn23)n1", "IC50": 10}, {"compound": "Nc1ccn2c(-c3ccncc3)c(-c3ccc(F)c(Cl)c3)nc2n1", "IC50": 21}, {"compound": "C[C@H](Nc1nccc(-c2c(-c3ccc(F)cc3)nc3nc(N)ccn23)n1)C1CCCCC1", "IC50": 1}, {"compound": "Nc1ccn2c(-c3ccncc3)c(-c3cccc(Cl)c3)nc2n1", "IC50": 162}, {"compound": "CS(=O)(=O)c1nccc(-c2c(-c3ccccc3)nc3nc(N)ccn23)n1", "IC50": 3410}, {"compound": "Nc1ccn2c(-c3ccncc3)c(-c3cccc(C(F)(F)F)c3)nc2n1", "IC50": 35}]}]}
